Key:
[1] = Blood alcohol content (BAC) of participants after alcoholic drinks; format: in vivo, human; conditions: half dose 30 minutes prior to drinking
Procedure: Participants were also administered a verbal processing test.
The differential in blood alcohol content between the participants receiving DHM and nicotinamide mononucleotide and emoxypine succinate and the participants in control group were substantial as show in Table 1.

[2] = cited from earlier work
[3] = system: alcohol dehydrogenase (ADH) and acetaldehyde dehydrogenase (ALDH); conditions: cited from earlier work

What does the source list for `O=C1c2c(O)cc(O)cc2O[C@H](c2cc(O)c(O)c(O)c2)[C@H]1O` [DHM, (2R,3R)-3,5,7-trihydroxy-2-(3,4,5-trihydroxyphenyl)-2,3-dihydrochromen-4-one]?
MEAN BAC LEVELS ([1]; elapsed time 00 h 15 m, cumulative drinks 1): 0.022%; MEAN BAC LEVELS ([1]; elapsed time 00 h 45 m, cumulative drinks 2): 0.051%; MEAN BAC LEVELS ([1]; elapsed time 01 h 15 m, cumulative drinks 3): 0.062%; MEAN BAC LEVELS ([1]; elapsed time 01 h 45 m, cumulative drinks 4): 0.087%; MEAN BAC LEVELS ([1]; elapsed time 02 h 15 m, cumulative drinks 5): 0.109%; MEAN BAC LEVELS ([1]; elapsed time 02 h 45 m, cumulative drinks 6): 0.131%; time required to reach peak plasma concentration ([2]; after oral administration at a dose of 20 mg/kg): 2.67 h; bioavailability after oral administration ([2]; rats, oral): 4.02%; alcohol (EtOH) elimination ([3]; by increasing the activities of ADH and ALDH): promotes alcohol (EtOH) elimination; alcohol-induced liver injuries ([3]; in vivo): ameliorates alcohol-induced liver injuries

— patent US20230052453A1, “COMPOSITIONS AND METHODS FOR RELIEVING EFFECTS OF ALCOHOL CONSUMPTION” (MOXY DISTRIBUTION, INC., priority 2021, published 2023)
